Laboratory results as given in patent US6225063A, “RNA channels in biological membranes” (University Technology Corporation, priority 1999, dated 2001).

System: 11th -round pool RNA
Assay: RNA-liposome binding in the presence of a potential competitor (SEPHACRYL S-1000 gel filtration)
Settings: 5 mM competitor; 11th-round pool RNA incubated with liposomes

NCCO [ethanolamine]
RNA binding to phosphatidylcholine liposomes in the presence of competitor: did not interfere with binding
